PubChem BioAssay (NCI)
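Values below derive from 48-hour exposures of cells grown in 96-well plates, with endpoints linearly interpolated between the two concentrations bracketing the appropriate inhibition level. GI50 = concentration required for 50% inhibition of growth. TGI: concentration producing complete growth inhibition.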

Assays:
Assay in all cases: inhibition of tumour cell growth, NCI panel, 48 h
[1] = system: 786-0 renal
[2] = system: A549 NSCLC
[3] = system: ACHN renal
[4] = system: BT-549 breast
[5] = system: CAKI-1 renal
[6] = system: COLO 205 colon
[7] = system: DU-145 prostate
[8] = system: EKVX NSCLC
[9] = system: HCC-2998 colon
[10] = system: HCT-116 colon
[11] = system: HCT-15 colon
[12] = system: HL-60(TB) leukemia
[13] = system: HOP-62 NSCLC
[14] = system: HOP-92 NSCLC
[15] = system: HS 578T breast
[16] = system: HT29 colon
[17] = system: IGROV1 ovarian
[18] = system: K-562 leukemia
[19] = system: KM12 colon
[20] = system: LOX IMVI melanoma
[21] = system: M14 melanoma
[22] = system: MALME-3M melanoma
[23] = system: MCF7 breast
[24] = system: MDA-MB-231 breast
[25] = system: MDA-MB-435
[26] = system: MOLT-4 leukemia
[27] = system: NCI-H226 lung
[28] = system: NCI-H23 lung
[29] = system: NCI-H460 lung
[30] = system: NCI-H522 lung
[31] = system: NCI/ADR-RES ovarian
[32] = system: OVCAR-3 ovarian
[33] = system: OVCAR-4 ovarian
[34] = system: OVCAR-5 ovarian
[35] = system: OVCAR-8 ovarian
[36] = system: PC-3 prostate
[37] = system: RPMI-8226 leukemia
[38] = system: RXF 393 renal
[39] = system: SF-268 CNS
[40] = system: SF-295 CNS
[41] = system: SF-539 CNS
[42] = system: SK-MEL-2 melanoma
[43] = system: SK-MEL-28 melanoma
[44] = system: SK-MEL-5 melanoma
[45] = system: SK-OV-3 ovarian
[46] = system: SN12C renal
[47] = system: SNB-19 CNS
[48] = system: SNB-75 CNS
[49] = system: SR leukemia
[50] = system: SW-620 colon
[51] = system: T-47D breast
[52] = system: TK-10 renal
[53] = system: U251 CNS
[54] = system: UACC-257 melanoma
[55] = system: UACC-62 melanoma
[56] = system: UO-31 renal

Oc1c(CCl)cc(Cl)cc1Cc1cc(Cl)cc(Cc2cc(Cl)cc(CCl)c2O)c1O
GI50 [1]: 4.61 µM | TGI [1]: 25.3 µM | GI50 [2]: 4.67 µM | TGI [2]: 29.3 µM | GI50 [3]: 3.09 µM | TGI [3]: 12.8 µM | GI50 [4]: 2710 nM | TGI [4]: 11.5 µM | GI50 [5]: 3.37 µM | TGI [5]: 17.7 µM | GI50 [6]: 7.14 µM | TGI [6]: 26.7 µM | GI50 [7]: 4.28 µM | TGI [7]: 37.1 µM | GI50 [8]: 2890 nM | TGI [8]: 15.8 µM | GI50 [9]: 2800 nM | TGI [9]: 12.2 µM | GI50 [10]: 2920 nM | TGI [10]: 10.4 µM | GI50 [11]: 2880 nM | TGI [11]: 12 µM | GI50 [12]: 2480 nM | TGI [12]: 8.13 µM | GI50 [13]: 4.42 µM | TGI [13]: 26.5 µM | GI50 [14]: 1910 nM | TGI [14]: 5.81 µM | GI50 [15]: 3.02 µM | TGI [15]: 22.6 µM | GI50 [16]: 5.37 µM | TGI [16]: 17.6 µM | GI50 [17]: 3.79 µM | TGI [17]: 16.7 µM | GI50 [18]: 1990 nM | TGI [18]: 13.4 µM | GI50 [19]: 3.43 µM | TGI [19]: 13.5 µM | GI50 [20]: 3.27 µM | TGI [20]: 12.2 µM | GI50 [21]: 3.54 µM | TGI [21]: 15.7 µM | GI50 [22]: 3.32 µM | TGI [22]: 14.7 µM | GI50 [23]: 2730 nM | TGI [23]: 10.9 µM | GI50 [24]: 2640 nM | TGI [24]: 7.63 µM | GI50 [25]: 3.89 µM | TGI [25]: 21.4 µM | GI50 [26]: 2670 nM | TGI [26]: 13.4 µM | GI50 [27]: 4.11 µM | TGI [27]: 21.1 µM | GI50 [28]: 2180 nM | TGI [28]: 7.31 µM | GI50 [29]: 3.26 µM | TGI [29]: 11 µM | GI50 [30]: 2730 nM | TGI [30]: 10.2 µM | GI50 [31]: 2200 nM | TGI [31]: 7.29 µM | GI50 [32]: 3.59 µM | TGI [32]: 15 µM | GI50 [33]: 3.1 µM | TGI [33]: 64.7 µM | GI50 [34]: 12.2 µM | TGI [34]: 38.7 µM | GI50 [35]: 3.62 µM | TGI [35]: 30.7 µM | GI50 [36]: 2700 nM | TGI [36]: 10.1 µM | GI50 [37]: 3.08 µM | TGI [37]: 91.7 µM | GI50 [38]: 2590 nM | TGI [38]: 9.43 µM | GI50 [39]: 3.18 µM | TGI [39]: 62.1 µM | GI50 [40]: 3.66 µM | TGI [40]: 34.7 µM | GI50 [41]: 4.16 µM | TGI [41]: 18.2 µM | GI50 [42]: 2160 nM | TGI [42]: 6.82 µM | GI50 [43]: 3.1 µM | TGI [43]: 16.1 µM | GI50 [44]: 1910 nM | TGI [44]: 4.19 µM | GI50 [45]: 3.25 µM | TGI [45]: 11.4 µM | GI50 [46]: 2560 nM | TGI [46]: 8.79 µM | GI50 [47]: 3.02 µM | TGI [47]: 15.9 µM | GI50 [48]: 3.95 µM | TGI [48]: 80.2 µM | GI50 [49]: 2850 nM | TGI [49]: 41 µM | GI50 [50]: 3.92 µM | TGI [50]: 14.2 µM | GI50 [51]: 2210 nM | TGI [51]: 9.39 µM | GI50 [52]: 3.9 µM | TGI [52]: 24.1 µM | GI50 [53]: 2830 nM | TGI [53]: 21.1 µM | GI50 [54]: 4.66 µM | TGI [54]: 29.9 µM | GI50 [55]: 2900 nM | TGI [55]: 11.1 µM | GI50 [56]: 2920 nM | TGI [56]: 11.8 µM
